In experiment [1] the target is T1, Menin-MLL (Homo sapiens, UniProt O00255).
T1 construct: His-Menin (M1-L615 end); purchased BIORTUS BP9210
T1 sequence (O00255 1-615 isoform O00255-1): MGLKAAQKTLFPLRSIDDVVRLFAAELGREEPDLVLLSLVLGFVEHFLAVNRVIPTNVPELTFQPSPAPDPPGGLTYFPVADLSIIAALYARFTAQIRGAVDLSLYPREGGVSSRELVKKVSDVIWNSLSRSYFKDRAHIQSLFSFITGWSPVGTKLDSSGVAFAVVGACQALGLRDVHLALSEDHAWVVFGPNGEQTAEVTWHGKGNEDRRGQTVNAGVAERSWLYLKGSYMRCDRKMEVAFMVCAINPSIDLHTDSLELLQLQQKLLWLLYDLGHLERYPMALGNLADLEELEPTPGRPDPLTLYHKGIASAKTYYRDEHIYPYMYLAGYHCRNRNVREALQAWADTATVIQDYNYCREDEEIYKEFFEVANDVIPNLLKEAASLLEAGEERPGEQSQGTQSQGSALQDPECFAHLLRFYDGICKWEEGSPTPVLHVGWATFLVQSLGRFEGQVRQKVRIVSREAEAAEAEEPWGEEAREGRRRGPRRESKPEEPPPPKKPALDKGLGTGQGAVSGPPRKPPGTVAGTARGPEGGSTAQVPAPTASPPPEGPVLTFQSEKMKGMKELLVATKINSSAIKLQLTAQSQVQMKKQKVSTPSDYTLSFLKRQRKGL
In words: Inhibitory activity against Menin-MLL binding (fluorescence polarization). The following applies: 150 nM His-Menin, 15 nM FITC-MLL, 25°C for 60 min. The method in brief: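 Fluorescence polarization competition: compound and 150 nM His-tagged menin (residues M1-L615) sit 15 min at 25 °C in pH 7.5 HEPES buffer with NaCl, DTT and BSA; 15 nM FITC-labelled MLL peptide then binds for 60 min. IC50 fitted sigmoidally from mP values, duplicate wells.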

The subject of experiment [2] is MOLM-13 (carrying MLL-AF9). In words: Inhibition of proliferation of human tumor cells (Alamar Blue, 7 days), MOLM-13. Type of experiment: cell-based. The following applies: Homo sapiens, MOLM-13 cells (carrying MLL-AF9), method calls the value GI50. From the text:
Experimental Example 2: Evaluation of Inhibitory Activity of Compounds Against Proliferation of Human Tumor Cells
• Human acute lymphoblastic leukemia cells MV-4-11, purchased from American Type Culture Collection, Catalog Number: CRL-9591; • Human acute myeloid leukemia cells MOLM-13, purchased from COBIOER BIOSCIENCES CO., LTD, Catalog Number: CBP60678; • Human acute myeloid leukemia cells KG-1a, purchased from American Type Culture Collection, Catalog Number: CCL-246.1; • Inverted Microscope, purchased from Olympus Tokyo; • Countess™ Automated Cell Counter, purchased from Invitrogen, Model: C10281; and • Multilabel Reader, purchased from Bio-Tek, Model: Synergy HT.
MV-4-11 cells were cultured in an IMDM medium containing 10% fetal bovine serum, KG-a cells were cultured in an IMDM medium containing 20% fetal bovine serum, or MOLM-13 cells were cultured in an RPMI-1640 medium containing 20% fetal bovine serum, each supplemented with 100 U·mL^-1 penicillin and 100 µg·mL^-1 streptomycin. These cells were cultured at 37°C with 5% CO2. The suspensions of individual cell lines were prepared in their respective media and seeded into 96-well plates at a density of 4,000 cells/well for MV-4-11 and MOLM-13 cells, or 3,000 cells/well for KG-1a cells. On the day of the experiment, a compound stock solution was diluted in a 3-fold or 4-fold gradient using DMSO. Each gradient-diluted stock solution was then further diluted 250-fold with a complete medium to prepare a series of working solutions at different concentrations. Subsequently, 100 µL of working solution (containing a 2-fold concentration series of the test compound) was added to each well, with duplicate wells set up for each concentration.
Seven days after compound addition (on Day 7), an Alamar Blue assay reagent (MCE, HY-111391 / CS-0040317) was added to measure the fluorescence intensity in each well. Wells containing the cells in the growth medium supplemented with 0.1% DMSO (Day 7) served as high-read control wells. The readouts from the wells containing the cells in the growth medium supplemented with 0.1% DMSO on the day of compound addition (Day 0) served as low-reading control well. GraphPad Prism software was used to calculate the concentration required to inhibit 50% of cell proliferation (GI50), which serves as a cell proliferation inhibition activity index.
In general terms: Resazurin is reduced to fluorescent resorufin, in cell work by metabolically active cells.

The mark [3] stands for this setting: fluorescence polarization, read-out: Menin-MLL IC50.

Experimental findings from patent publication EP4782453A1 (Beyang Therapeutics Co., Ltd., priority 2023, dated 2025) are described below.

Where two headings read alike, the source gives them in different places.

With `Cc1nc(F)c2c(-c3ccc(F)cc3C(=O)N3CCOC[C@H]3C)cc(C3CN([C@H](CCCN4CC5CC(C4)N5C)C(C)C)C3)cn12` [Example 349], the values for the IC50 in experiment [1] (setting [3]) and in experiment [2] (168 h) were 4 nM and 16.5 nM, respectively.
On to `CCN1CCN(CCC[C@H](C(C)C)N2CC(c3cc(-c4ccc(F)cc4C(=O)N4CCOC[C@H]4C)c4cnn(C)c4c3)C2)CC1` [Example 359], for which the values for the IC50 in experiment [1] (setting [3]) and in experiment [2] (168 h) were 6 nM and 66 nM, respectively.
With `Cc1nc(F)c2c(-c3ccc(F)cc3C(=O)N3CCOC[C@H]3C)cc(C3CN([C@H](CCCN4CCN(CCF)CC4)C(C)C)C3)cn12` [Example 361], the results for the half-maximal inhibitory concentration (IC50) in experiment [1] (setting [3]) and in experiment [2] (168 h) were 5.2 nM and 3.3 nM, respectively.
Turning to `Cc1nc(F)c2c(-c3ccc(F)cc3C(=O)N3CCOC[C@H]3C)cc(C3CN([C@H](CCCN4CCN(CC(F)F)CC4)C(C)C)C3)cn12` [Example 362], the IC50 – broadly, the concentration that inhibits the measured activity by half – came out at 4.6 nM in experiment [1] (Menin-MLL IC50, fluorescence polarization) and 2.8 nM in experiment [2] (MOLM-13, 168 h).
Take `Cc1ncc2c(-c3ccc(F)cc3C(=O)N3CCOC[C@H]3C)cc(C3CN([C@H](CCCN4CCN(CCF)CC4)C(C)C)C3)cn12` [Example 363]: the IC50 in experiment [1] (setting [3]) stood at 6.2 nM; in experiment [2] (168 h), 20 nM.
With `Cc1ncc2c(-c3ccc(F)cc3C(=O)N3CCOC[C@H]3C)cc(C3CN([C@H](CCCN4CCN(CC(F)F)CC4)C(C)C)C3)cn12` [Example 364], the half-maximal inhibitory concentration (IC50) in experiment [1] (setting [3]) is 5.1 nM; in experiment [2] (168 h), 3.9 nM.
Regarding `Cc1nc(F)c2c(-c3ccc(F)cc3C(=O)N3CCOC[C@H]3C)cc(C3CN([C@H](CCCN4CCN(S(C)(=O)=O)CC4)C(C)C)C3)cn12` [Example 365], the results for the half-maximal inhibitory concentration (IC50) in experiment [1] (setting [3]) and in experiment [2] (168 h) were 8.5 nM and 14 nM, respectively.
For `Cc1nc(F)c2c(-c3ccc(F)cc3C(=O)N3CCOC[C@H]3C)cc(C3CN([C@H](CCCN4CC5(COC5)C4)C(C)C)C3)cn12` [Example 369], the values for the half-inhibitory concentration (IC50) in experiment [1] (setting [3]) and in experiment [2] (168 h) were 3.8 nM and 3 nM, respectively.
For the compound `CC(=O)N1CC2(CN(CCC[C@H](C(C)C)N3CC(c4cc(-c5ccc(F)cc5C(=O)N5CCOC[C@H]5C)c5c(F)nc(C)n5c4)C3)C2)C1` [Example 370, 1-{6-[(4R)-4-[3-(1-fluoro-8-{4-fluoro-2-[(3R)-3-methylmorpholin-4-carbonyl]phenyl}-3-methylimidazo[1,5-a]pyridin-6-yl)azacyclobutan-1-yl]-5-methylhexyl]-2,6-diazaspiro[3.3]heptan-2-yl}ethan-1-one], the IC50 in experiment [1] (setting [3]) was determined as 3.8 nM; in experiment [2] (168 h), 4.2 nM.
For `Cc1nc(F)c2c(-c3ccc(F)cc3C(=O)N3CCOC[C@H]3C)cc(C3CN(C(CC[C@H]4COCCN4)C(C)C)C3)cn12` (stereo partly drawn) [Example 373, (3R)-4-{5-fluoro-2-[1-fluoro-3-methyl-6-(1-{4-methyl-1-[(3S)-morpholin-3-yl]pentan-3-yl}azacyclobutan-3-yl)imidazo[1,5-a]pyridin-8-yl]benzoyl}-3-methylmorpholine] the same measures were 6.4 nM and 6 nM.
With `CCN1CCN(CCC[C@H](C(C)C)N2CC(c3cc(-c4ccc(F)cc4C(=O)N(CC)C(C)C)c4cnc(C)n4c3)C2)CC1` [Example 377], the IC50 in experiment [1] (setting [3]) was 2 nM; in experiment [2] (168 h), 1.7 nM.
As for `CCN(C(=O)c1cc(F)ccc1-c1cc(C2CN([C@H](CCCN3C4CCC3CN(C(C)=O)C4)C(C)C)C2)cn2c(C)ncc12)C(C)C` [Example 378, 2-(6-{1-[(3R)-6-{3-acetyl-3,8-diazabicyclo[3.2.1]oct-8-yl}-2-methylhexan-3-yl]azacyclobutan-3-yl}-3-methylimidazo[1,5-a]pyridin-8-yl)-N-ethyl-5-fluoro-N-(isopropyl)benzamide], the half-inhibitory concentration (IC50) was found to be 2.8 nM in experiment [1] (setting [3]) and 5.8 nM in experiment [2] (168 h).
For `Cc1nc(F)c2c(-c3ccc(F)cc3C(=O)N3CCOC[C@H]3C)cc(C3CN([C@H](CCCN4C5CC4CN(C)C5)C(C)C)C3)cn12` [Example 384], the half-inhibitory concentration (IC50) is 2.7 nM in experiment [1] (setting [3]) and 4.1 nM in experiment [2] (168 h).
Regarding `Cc1ncc2c(-c3ccc(F)cc3C(=O)N3CCOC[C@H]3C)cc(C3CN([C@H](CCCN4CCN(CC(F)(F)F)CC4)C(C)C)C3)cn12` [Example 385], the IC50 in experiment [1] (setting [3]) came out at 4.7 nM; in experiment [2] (168 h), 8.1 nM.
As to `CCN(C(=O)c1cc(F)ccc1-c1cc(C2CN([C@H](CCCN3C4CC3CN(C(C)=O)C4)C(C)C)C2)cn2c(C)ncc12)C(C)C` [Example 387], the values for the half-inhibitory concentration (IC50) in experiment [1] (setting [3]) and in experiment [2] (168 h) were 2.5 nM and 8.9 nM, respectively.
With `CCN(C(=O)c1cc(F)ccc1-c1cc(C2CN([C@H](CCCN3CC4(C3)CN(C(C)=O)C4)C(C)C)C2)cn2c(C)ncc12)C(C)C` [Example 393], the IC50 is 2.2 nM in experiment [1] (setting [3]) and 16 nM in experiment [2] (168 h).
Turning to `CCN(C(=O)c1cc(F)ccc1-c1cc(C2CN([C@H](CCCN3CCN(CCF)CC3)C(C)C)C2)cn2c(C)ncc12)C(C)C` [Example 395], the results for the 50% inhibitory concentration (IC50) in experiment [1] (setting [3]) and in experiment [2] (168 h) were 2 nM and 6.1 nM, respectively.
As for `CCN(C(=O)c1cc(F)ccc1-c1cc(C2CN([C@H](CCCN3CCC(OC)CC3)C(C)C)C2)cc2c1cnn2C)C(C)C` [Example 399-2, N-ethyl-5-fluoro-2-(6-{1-[(3R)-6-(4-methoxypiperidin-1-yl)-2-methylhexan-3-yl]azacyclobutan-3-yl}-1-methyl-1H-indazol-4-yl)-N-(isopropyl)benzamide], the IC50 came to 3.3 nM in experiment [1] (setting [3]) and 25 nM in experiment [2] (168 h).
`CCN(C(=O)c1cc(F)ccc1-c1cc(C2CN([C@H](CCCN3CCN(CCO)CC3)C(C)C)C2)cc2c1cnn2C)C(C)C` [Example 400-2]: the IC50 in experiment [1] (setting [3]) came to 3.7 nM; in experiment [2] (168 h), 12 nM.
In the same order, the values of `CCN(C(=O)c1cc(F)ccc1-c1cc(C2CN([C@H](CCCN3CCC(OCCO)CC3)C(C)C)C2)cc2c1cnn2C)C(C)C` [Example 401-2] are 3.7 nM and 29 nM.
For `CCN(C(=O)c1cc(F)ccc1-c1cc(C2CN([C@@H](CN3CCN(C)CC3)C(C)C)C2)cn2c(C)ncc12)C(C)C` [Example 403-2, N-ethyl-5-fluoro-2-(3-methyl-6-{1-[(2R)-3-methyl-1-(4-methylpiperazin-1-yl)butan-2-yl]azacyclobutan-3-yl}imidazo[1,5-a]pyridin-8-yl)-N-(isopropyl)benzamide] the same measures were 10 nM and 38 nM.
With `CCN(C(=O)c1cc(F)ccc1-c1cc(C2CN([C@H](CCCN3CCC(S(C)(=O)=O)CC3)C(C)C)C2)cn2c(C)ncc12)C(C)C` [Example 404], the figures for the half-inhibitory concentration (IC50) in experiment [1] (setting [3]) and in experiment [2] (168 h) were 2.3 nM and 8.1 nM, respectively.
In the case of `CCN(C(=O)c1cc(F)ccc1-c1cc(C2CN([C@H](CCCN3CCC(NC(C)=O)CC3)C(C)C)C2)cc2c1cnn2C)C(C)C` [Example 405], the half-maximal inhibitory concentration (IC50) in experiment [1] (setting [3]) worked out at 1.6 nM; in experiment [2] (168 h), 7.2 nM.
For the compound `CCN(C(=O)c1cc(F)ccc1-c1cc(C2CN([C@H](CCCN3CCC(S(C)(=O)=O)CC3)C(C)C)C2)cc2c1cnn2C)C(C)C` [Example 406], the IC50 in experiment [1] (setting [3]) came out at 7 nM; in experiment [2] (168 h), 37 nM.
